17 compounds from paper PMC12027149 (International Journal of Molecular Sciences, 2025) can be followed below.

pIC50: −log10 of the molar value. Where “and” joins values, the source holds several entries; their conditions need not be identical. Equal values may be shown once. Read-outs that look alike come from different tables or passages of the source.

The nature of series [1]: MTT cytotoxicity assay on differentiated SH-SY5Y cells. In kind it is cell-based, human. The settings on record: human, 0.05–5 mM; for CC50 at 24 h: differentiated SH-SY5Y, MTT reduction assay, Hill fit, read-out: LC50. Here is the method:
(§1) The SH–SY5Y cell line (DSMZ code: ACC 209) was supplied by the German Collection of Microorganisms and the Cell Culture GmbH (DSMZ) biobank and was cultured according to the supplier’s information. Cells were grown in DMEM:F12 (Dulbecco’s Modified Eagle’s Medium/F12), supplemented with 10% fetal bovine serum (FBS) and 1% antibiotic–antimycotic in a humidified atmosphere with 5% CO2 at 37 °C. Subculture was performed according to biobank instructions when the cultures reached 80–85% of confluence.
(§2) SH-SY5Y cells were trypsinized (trypsin/EDTA; 0.25%) and the cell suspension was seeded in 96-well plates at a density of 2 × 10^4 cells/well and incubated until reaching 80-85% confluence. Cells were differentiated to obtain a dopaminergic neuronal phenotype according to Ferreira et al. with slight modifications (Figure 10). To ensure reproducibility and optimal neuronal differentiation, cells were used between passages (15–25). Briefly, cells were seeded in complete DMEM:F12 medium containing 10 µM retinoic acid (RA) and 2.5% fetal bovine serum (FBS) and maintained for 4 days, with the medium changed on day 2. After this time, the medium was replaced by DMEM:F12 supplemented with 10 µM RA, 80 nM 12-O-tetradecanoylphorbol-13-acetate (TPA), and 2.5% FBS, and the cells were maintained for an additional 4 days (with the medium changed at day 6). The cytotoxicity assay was performed on day 8.
(§3) The SH-SY5Y cells’ viability was evaluated after exposure for 24 h to […]. The 3-(4,5-dimethylthiazol-2-yl) − 2,5-diphenyltetrazolium bromide (MTT) colorimetric assay was performed following the methodology described by Joana Silva et al.. The experimental dose–response results were fitted to the Hill’s sigmoidal non-linear regression model. For each cathinone, the LC50 values (cathinone concentration showing 50% lethality) and their confidence interval at the 95% confidence level ([CI]) were determined. The Hill slope, also known as the Hill coefficient, which describes the steepness of a dose–response curve, and the minimum observable adverse effect concentration (LOAEL) were also determined for all cathinones.
A general note: Tetrazolium assays rely on reduction of a dye to a coloured formazan, in cell work by metabolically active cells.

For series [2], the system named is differentiated SH-SY5Y cells. The series is described as above. The settings on record: lowest observed adverse effect level, differentiated SH-SY5Y, 24 h, MTT. In kind it is cell-based, human. Here is the method:
as §1, §2, §3

For series [3], the target named is T1, Acetylcholinesterase (AChE, EC 3.1.1.7) (Electrophorus electricus, UniProt O42275).
T1 construct: purchased Sigma-Aldrich
T1 sequence (O42275 24-633): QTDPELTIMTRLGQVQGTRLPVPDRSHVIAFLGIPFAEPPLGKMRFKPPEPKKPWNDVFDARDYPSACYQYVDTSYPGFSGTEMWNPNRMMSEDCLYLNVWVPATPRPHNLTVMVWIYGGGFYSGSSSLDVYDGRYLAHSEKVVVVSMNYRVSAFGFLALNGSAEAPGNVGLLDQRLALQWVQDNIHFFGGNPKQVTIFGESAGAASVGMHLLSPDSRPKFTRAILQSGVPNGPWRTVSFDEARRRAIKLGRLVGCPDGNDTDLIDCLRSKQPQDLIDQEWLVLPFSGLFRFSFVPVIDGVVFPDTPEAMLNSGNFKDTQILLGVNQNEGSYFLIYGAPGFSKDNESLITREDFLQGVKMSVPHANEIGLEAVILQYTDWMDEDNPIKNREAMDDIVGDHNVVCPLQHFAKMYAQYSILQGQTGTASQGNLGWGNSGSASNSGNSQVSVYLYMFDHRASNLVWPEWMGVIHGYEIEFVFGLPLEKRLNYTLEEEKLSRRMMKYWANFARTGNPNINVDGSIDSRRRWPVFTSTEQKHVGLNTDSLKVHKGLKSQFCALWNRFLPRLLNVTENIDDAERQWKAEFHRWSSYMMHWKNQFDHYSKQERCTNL
Briefly: Acetylcholinesterase inhibition, modified Ellman colorimetric method. In kind it is biochemical. The settings on record: for Hillslope: AChE inhibition dose–response curve; for LOAEL / pIC50: Ellman assay; for pIC50: 0.03–2 mM, Hill fit; for maximum inhibition of AChE among the tested concentrations: 0.03 to 2 mM. Here is the method:
Acetylcholinesterase (AChE, EC 3.1.1.7) enzymatic activity was assessed using a modified version of Ellman’s colorimetric method, as described by Falé et al.. In this assay, a mixture of 325 μL of 50 mM Tris-HCl buffer (pH 8), 100 μL of a cathinone solution, and 25 μL of AChE (0.1 U/mL in 50 mM Tris–HCl buffer pH 8) were incubated. After a 15 min incubation period, 75 μL of AChI (0.33 mg/mL) was added to 475 μL of DTNB (dithiobis (2-nitrobenzoic acid)) (1.2 mg/mL in Tris–HCl buffer (pH 8) containing 0.1 M NaCl and 0.02 M MgCl2). A control reaction, representing 100% activity, was performed using the same volume of water instead of the cathinone solution. The initial velocity of the enzymatic reaction was measured at 405 nm for 5 min, with all assays carried out in duplicate. The percentage of AChE activity inhibition for different concentrations of cathinones [0.03–2 mM] was determined as the ratio of the initial velocity in the cathinone presence to the initial velocity of the control reaction. Experimental results were fitted to Hill’s sigmoidal dose–response non-linear regression model to determine IC50 values (cathinone concentration showing 50% inhibition), along with their confidence interval at the 95% confidence level ([CI]). The Hill slope coefficients that provide the steepest value of the slope of the dose–response curve and the minimum observable adverse effect concentration (LOAEL) for all cathinones were also determined.
Background: In Ellman's method for cholinesterases, released thiocholine reacts with DTNB.

On to `CC(C(=O)c1ccccc1Cl)N(C)C` (racemic) [2-CDC (12), (R,S)-1-(2-chlorophenyl)-2-(dimethylamino)propan-1-one], for which the CC50 at 24 h in series [1] is 1300 µM. For the same compound, the LOAEL in series [2] was 1 mM and 1.0 mM; in series [3] (AChE inhibition), 0.250 mM. Further, the Hillslope in series [3] worked out at 2.5. Moreover, in series [3] (IC50, AChE inhibition), the pIC50 is 3.15.
Take `CCNC(C)C(=O)c1ccccc1Cl` (racemic) [2-CEC (4), (R,S)-1-(2-chlorophenyl)-2-(ethylamino)propan-1-one]: the CC50 at 24 h in series [1] was determined as 1600 µM. Moreover, the results for the LOAEL in series [2] and in series [3] (AChE inhibition) were 0.5 mM and 0.500 mM, respectively. Besides, the “maximum inhibition of AChE among the tested concentrations” value in series [3] worked out at 85%. The compound further came in with a Hillslope in series [3] of 4.3. In series [3] (IC50, AChE inhibition), the pIC50 is 3.22.
In the case of `CNC(C)C(=O)c1ccccc1Cl` (racemic) [2-CMC (1), (R,S)-1-(2-chlorophenyl)-2-(methylamino)propan-1-one], in series [1], the CC50 at 24 h worked out at 1700 µM. The LOAEL in series [2] was 1 mM and 1.0 mM; in series [3] (AChE inhibition) it was 0.250 mM. Further, in series [3], the Hillslope was determined as 2.5. The pIC50 in series [3] (IC50, AChE inhibition) was 3.15.
As to `CC(C(=O)c1ccccc1Cl)N1CCCC1` (racemic) [2-Cl-PPP (9), (R,S)-1-(2-chlorophenyl)-2-(pyrrolidine-1-yl)propan-1-one], the CC50 at 24 h in series [1] was 1600 µM. Moreover, the LOAEL in series [2] is 0.5 mM. In series [3], the “maximum inhibition of AChE among the tested concentrations” value is on record as 81% and the Hillslope was found to be 1.5. Moreover, in series [3] (AChE inhibition), the lowest-observed-adverse-effect level (LOAEL) came to 0.125 mM. For the same compound, the pIC50 in series [3] (IC50, AChE inhibition) is 3.52.
Take `CC(C(=O)c1cccc(Cl)c1)N(C)C` (racemic) [3-CDC (13), (R,S)-1-(3-chlorophenyl)-2-(dimethylamino)propan-1-one]: the CC50 at 24 h in series [1] was 1800 µM. In addition, the LOAEL in series [2] was 1 mM and 1.0 mM; in series [3] (AChE inhibition), 0.250 mM. Besides, the Hillslope in series [3] was 1.2. The same compound had a pIC50 in series [3] (IC50, AChE inhibition) of 3.05.
Take `CCNC(C)C(=O)c1cccc(Cl)c1` (racemic) [3-CEC (5), (R,S)-1-(3-chlorophenyl)-2-(ethylamino)propan-1-one]: the CC50 at 24 h in series [1] was found to be 1300 µM. The LOAEL stood at 0.5 mM in series [2] and 0.250 mM in series [3] (AChE inhibition). The same compound gave a Hillslope in series [3] of 1.3. This compound showed a pIC50 in series [3] (IC50, AChE inhibition) of 3.10.
Take `CC(C)NC(C)C(=O)c1cccc(Cl)c1` (racemic) [3-CIC (17), (R,S)-1-(3-chlorophenyl)-2-(isopropylamino)propan-1-one]: in series [1], the CC50 at 24 h turned out to be 1600 µM. Also, the LOAEL is 1 mM and 1.0 mM in series [2]; 0.063 mM in series [3] (AChE inhibition). The same compound yielded a Hillslope in series [3] of 0.8. The same compound had a pIC50 in series [3] (IC50, AChE inhibition) of 3.70.
Take `CNC(C)C(=O)c1cccc(Cl)c1` (racemic) [3-CMC (2), (R,S)-1-(3-chlorophenyl)-2-(methylamino)propan-1-one]: in series [1], the CC50 at 24 h was found to be 2300 µM. The LOAEL in series [2] was 1 mM and 1.0 mM; in series [3] (AChE inhibition), 0.500 mM. Also, the Hillslope in series [3] came out at 3.7. The same compound gave a pIC50 in series [3] (IC50, AChE inhibition) of 3.10.
As to `CC(C(=O)c1cccc(Cl)c1)N1CCCC1` (racemic) [3-Cl-PPP (10), (R,S)-1-(3-chlorophenyl)-2-(pyrrolidine-1-yl)propan-1-one], in series [1], the CC50 at 24 h was 2500 µM. Also, the results for the LOAEL in series [2] and in series [3] (AChE inhibition) were 0.1 mM and 0.125 mM, respectively. Also, the Hillslope in series [3] was found to be 1.8. In series [3] (IC50, AChE inhibition), this compound showed a pIC50 of 3.40.
On to `CC(NC(C)(C)C)C(=O)c1cccc(Cl)c1` (racemic) [3-Cl-TBC (19), (R,S)-2-(tert-butylamino)-1-(3-chlorophenyl)propan-1-one], for which the CC50 at 24 h in series [1] is 1000 µM. The LOAEL in series [2] is 0.5 mM; in series [3] (AChE inhibition) it was 0.250 mM. In series [3], this compound showed a Hillslope of 0.9. In addition, the pIC50 in series [3] (AChE inhibition, read-out: IC50) was 3.00.
On to `CC(C(=O)c1ccc(Cl)cc1)N(C)C` (racemic) [4-CDC (14), (R,S)-1-(4-chlorophenyl)-2-(dimethylamino)propan-1-one], for which the CC50 at 24 h in series [1] was determined as 1500 µM. Further, the LOAEL is 1 mM and 1.0 mM in series [2]; 0.500 mM and 0.50 mM in series [3] (AChE inhibition). Also, the Hillslope in series [3] is 2.9. In addition, the negative logarithm of the IC50 (pIC50) in series [3] (IC50, AChE inhibition) was 3.15.
Consider `CCNC(C)C(=O)c1ccc(Cl)cc1` (racemic) [4-CEC (6), (R,S)-1-(4-chlorophenyl)-2-(ethylamino)propan-1-one], for which, in series [1], the CC50 at 24 h was 1300 µM. In addition, the LOAEL in series [2] came out at 0.1 mM; in series [3] (AChE inhibition), 0.250 mM. This compound also yielded a Hillslope in series [3] of 1.2. Also, the pIC50 in series [3] (IC50, AChE inhibition) is 2.92.
For the compound `CC(C)NC(C)C(=O)c1ccc(Cl)cc1` (racemic) [4-CIC (18), (R,S)-1-(4-chlorophenyl)-2-(isopropylamino)propan-1-one], the CC50 at 24 h in series [1] came to 1400 µM. The LOAEL in series [2] was 1 mM and 1.0 mM; in series [3] (AChE inhibition), 0.375 mM. Besides, in series [3], the Hillslope came out at 2.0. In addition, the pIC50 in series [3] (IC50, AChE inhibition) is 2.96.
With `CNC(C)C(=O)c1ccc(Cl)cc1` (racemic) [4-CMC (3), (R,S)-1-(4-chlorophenyl)-2-(methylamino)propan-1-one], in series [1], the CC50 at 24 h amounted to 1300 µM. Moreover, the results for the LOAEL in series [2] and in series [3] (AChE inhibition) were 0.1 mM and 0.250 mM, respectively. Also, the Hillslope in series [3] is given as 1.5. Also, the pIC50 in series [3] (IC50, AChE inhibition) is roughly 2.70. In series [3] (highest tested concentration of 2 mM), this compound displayed an inhibition at 2000 µM of 47%.
As to `CCN(CC)C(C)C(=O)c1ccc(Cl)cc1` (racemic) [4-Cl-DEC (16), (R,S)-1-(4-chlorophenyl)-2-(diethylamino)propan-1-one], in series [1], the CC50 at 24 h was 1000 µM. For the same compound, the LOAEL is 1 mM and 1.0 mM in series [2]; 0.063 mM in series [3] (AChE inhibition). Also, the Hillslope in series [3] is 0.8. This compound showed a pIC50 in series [3] (IC50, AChE inhibition) of 4.00.
On to `CC(C(=O)c1ccc(Cl)cc1)N1CCCC1` (racemic) [4-Cl-PPP (11), (R,S)-1-(4-chlorophenyl)-2-(pyrrolidine-1-yl)propan-1-one], for which, in series [1], the CC50 at 24 h stood at 1800 µM. Also, the LOAEL in series [2] is 0.5 mM; in series [3] (AChE inhibition), 0.250 mM. The Hillslope in series [3] turned out to be 1.1. This compound also gave a pIC50 in series [3] (IC50, AChE inhibition) of 3.30.
As for `CNC(C)C(=O)c1ccc(C)cc1` (centres unmarked) [Mephedrone (M), Mephedrone, reference compound], the Emax at 24 h in series [1] (MTT, read-out: maximum response (cytotoxicity)) came to 73%. The CC50 at 24 h in series [1] was 2100 µM. Further, the figures for the LOAEL in series [2] and in series [3] (AChE inhibition) were 0.5 mM and 0.750 mM, respectively. The compound also showed a Hillslope in series [3] of 8.6. In series [3] (IC50, AChE inhibition), this compound had a pIC50 of 3.10.

By LOAEL is commonly meant the lowest tested level that showed an adverse finding. By pIC50 is commonly meant the negative decadic logarithm of the IC50, by convention in mol/L. One may read the inhibition as the percentage by which the read-out fell short of the control. A higher inhibition goes with a strong effect.
